Assays:
SW620 cells = assay: DHODH-dependent respiration (permeabilized cells); assay type: cell-based, human; settings: 24 h; NK-A 17E-233I 25 µM, Brequinar 100 µM; excess exogenous DHO
Procedure: Cells were resuspended in MiR05 medium and transferred into the chambers of the Oxygraph-2k instruments. The OCR in digitonin-permeabilized cells was monitored in the presence of the complex I inhibitor (0.5 μM rotenone), 1 mM DHO, 3 mM ADP, 10 μM cytochrome c, and 30 μM Leflunomide. DHODH-mediated respiration was calculated by subtracting the residual respiration rate after the addition of 30 μM Leflunomide from the respiration rate measured in the presence of 0.5 μM rotenone, 1 mM DHO, 3 mM ADP, and 10 μM cytochrome c.

[1] = test system: basal forebrain cholinergic neurons (BFCNs); assay: Cytoskeleton immunostaining; assay type: cell-based, mouse; settings: 24 h
Procedure: To evaluate DNA damage, cancer cells (1 × 10^3) were cultured in 8-well collagen IV Ibidi chamber slides (#80,822; Ibidi) for 24 h, treated with DMSO or NK-A 17E-233I (25 µM) for an additional 24 h, and then fixed. For assessing the integrity of the cytoskeleton, neuronal cells (BFCNs) were cultured on coverslips for 14 days, while non-neuronal cells (cancer cells) were cultured on coverslips for 24 h. Both neuronal and non-neuronal cells were treated with DMSO or NK-A 17E-233I (1 µM) for 24 h, fixed, and permeabilized as described in [21]. Samples were then blocked (non-neuronal cells with 3% BSA in PBS-T and neuronal cells with 10% BSA in PBS-T) and incubated overnight at 4 °C with the appropriate primary antibodies. Following this, samples were washed with PBS-T and incubated for 1 h with Alexa-488 Phalloidin (#A12379; Invitrogen-ThermoFisher Scientific) to visualize F-actin, along with the corresponding secondary antibodies. The cells were mounted with Ibidi mounting medium containing 4',6-diamidino-2-phenylindole (DAPI, #50011; Ibidi) prior to imaging.
The primary antibodies utilized were: anti–α-tubulin at a 1:1000 dilution (#SC-32293; Santa Cruz), anti–γ-H2AX and anti-Rad51 at 1:500 dilution (#ab22551 and #ab133534, respectively; […]), and anti–microtubule-associated protein 2 (MAP2) at a 1:1000 dilution (#OSM00149W; ThermoFisher Scientific). […]

colorectal cancer cells [2] = assay: Western blot; assay type: cell-based, human
Procedure: Cancer cells (2.2 × 10^6) were cultured in 100-mm Petri dishes and treated with DMSO or NK-A 17E-233I (25 µM) for 48 h. Cells were harvested by scrapping into 2 × Laemmli buffer (4% SDS, 20% glycerol, 125 mM Tris–HCl, pH 6.8) and heated at 100 °C for 5 min. A 4 × Laemmli sample buffer containing β-mercaptoethanol was added to the cell lysates. The proteins were separated using sodium dodecyl sulfate polyacrylamide gel electrophoresis (SDS-PAGE) and subsequently transferred to polyvinylidene fluoride (PVDF) membranes (#88518; Thermo Fisher Scientific) following the manufacturer’s protocols. The membranes were blocked at room temperature for 1 h with 5% dried skimmed milk in Tris-buffered saline with Tween-20 (TBS-T) (20 mM Tris–HCl, pH 7.5, 150 mM NaCl, 0.1% Tween-20), and the blots were incubated with the corresponding antibodies at a dilution of 1:1000–1:3000 in a blocking buffer at 4 °C overnight.
Primary antibodies utilized in this study included: anti-human DHODH (#SC-166348; Santa Cruz), anti–CHK1-pS345 (#2348; Cell Signaling), anti-POLD2 (#29765–1-AP; Proteintech), anti-POLD1 (#15646–1-AP; Proteintech), anti-p53 (#SC-126; Santa Cruz), anti-KRAS, clone 4F3 (#SAB1404011; Sigma-Aldrich), anti-GAPDH (#ab9489; Abcam), anti–α-tubulin (#T9026; Sigma-Aldrich), anti-BAX (#SC-23959; Santa Cruz), anti-cytochrome c (#66264–1-IG; Proteintech), anti-DR5 (#3696; Cell Signaling, dilution 1:500), anti–caspase-8 (#SC-56070; Santa Cruz), and anti–caspase-3 (#9662; Cell Signaling, dilution 1:500). The membranes were incubated at room temperature for 1 h with secondary antibodies (diluted 1:3000–5000), either anti-rabbit (#A0545; Sigma-Aldrich) or anti-mouse IgG-horseradish peroxidase-conjugated (#A9044; Sigma-Aldrich), in TBS-T. The images were analyzed and quantified using ImageStudio software (LI-COR) or ImageQuant 10.2 TL analysis software (Cytiva Life Sciences).

colorectal cancer cells [3] = assay: Oxidative stress (CellROX Deep Red); assay type: cell-based, human
Procedure: Cancer cells (1 × 10^3) were cultured in 8-well collagen IV Ibidi chamber slides and treated with DMSO or NK-A 17E-233I (25 µM) for 24 h. The media was replaced with fresh media containing 100 nM MitoTracker Red dye to measure ΔΨm (1 mM stock; #M7512; Thermo Fisher Scientific) and 5 µM CellROX Deep Red Reagent to assess oxidative stress levels (2.5 mM stock; #C10422; Thermo Fisher Scientific) for 45 min. The cells were then fixed with 4% methanol-free PFA, washed with PBS, and mounted with Ibidi mounting medium containing 4',6-diamidino-2-phenylindole (DAPI) prior to imaging.
The density of γ-H2AX, Rad51, ΔΨm, and oxidative stress in cancer cells was measured as described in [32], utilizing custom macros available as open access at Zenodo (https://zenodo.org/records/8387899) to obtain raw intensities and individual cell area.

colorectal cancer cells [4] = assay: Clonogenic assay; assay type: cell-based, human
Procedure: Cancer cells (4 × 10^3) were cultured in 6-well plates in triplicate and treated with DMSO or NK-A 17E-233I (25 µM) for two weeks. Colonies were subsequently stained with a solution containing 0.5% crystal violet (#B21932.14; ThermoScientific) and 20% ethanol, followed by multiple washes with water. Plates were allowed to air dry overnight and were subsequently scanned using an Epson Perfection V850 Pro scanner (Kamera Express, Spain). The area of the wells occupied by cells was quantified utilizing the ImageJ plugin ColonyArea.

## COc1cc(C)c(Oc2cc(C)cc(O)c2O)c(O)c1 [NK-A 17E-233I]
SW620 cells
  DHODH-mediated oxygen consumption rate: reduced
[1]
  dendritic and cytoskeletal structures (F-actin, MAP2): retained their dendritic and cytoskeletal structures
Colorectal cancer cells [2]; 25 µM
  expression of wild-type p53 protein: without influencing the expression
  phosphorylation of CHK1 (pS345): confirmed the phosphorylation of CHK1
Colorectal cancer cells [2]; 25 µM, 48 h
  expression levels of DHODH: did not observe a change
  levels of apoptotic markers (DR5, caspase-8, Bax, cytochrome c, caspase-3): increased levels
  protein expression levels of POLD1 and POLD2: reductions
Colorectal cancer cells [2]; HCT116 cells
  expression of KRAS G13D mutant protein: reduced
Colorectal cancer cells [2]; NK-A 17E-233I 25 µM, Brequinar
  levels of p53-mutant protein: reduced
Colorectal cancer cells [2]; SW620 cells
  expression of KRAS G12V mutant protein: reduced
Colorectal cancer cells [3]; HCT116, 25 µM, 24 h
  ROS levels: significantly decreased
Colorectal cancer cells [3]; different cancer cell lines (HT-29), 25 µM
  ROS levels: without significant effect
Colorectal cancer cells [4]; 25 µM, two weeks
  ability to form colonies: significantly diminished
Colorectal cancer cells [4]; LS174T: Tx 4 µM, VE-821 0.5 µM, 14 days, HCT116
  combination with the ATR inhibitor VE-821: synergistic activity

— paper PMC12534982 (Journal of Experimental & Clinical Cancer Research : CR, 2025)
